Experimental data published in US9334280B2, “Synthetic rigidin analogues as anticancer agents, salts, solvates and prodrugs thereof, and method of producing same” (New Mexico Technical Research Foundation, priority 2012, dated 2016).
Like-named read-outs stand apart in the source and are kept apart here.

Key:
HeLa cells = test: Flow cytometric cell cycle analysis (Vybrant Orange); format: cell-based, human; conditions: 0.1 μM, 24 h
Procedure: To assess the effects of the analogues on the cell cycle, cell cycle analysis was performed. 70-80% confluent HeLa cells were trypsinized and seeded at an initial density of 2×10^5 cell per well into 6 well plates in DMEM supplemented with 10% FBS, 100 mg/L penicillin G and 100 mg/L streptomycin. The cells were allowed to adhere overnight and before treatment with compounds of Formula I at concentrations ranging from 0.1 to 10 microM. After 24 hrs, the cells were washed 3× with DMEM, trypsinized, pelleted, and re-suspended in 200 microL of culture medium containing 10 microM (2 microL/mL) vybrant orange dye. The samples in the labeling solution were transferred into Falcon tubes and incubated in a water bath for 30 mins at 37° C. The samples were then analyzed using a Becton Dickinson FACscan flow cytometer with CellQuest software. A 488 nm laser was utilized using parameters that can be found in Appendix B; 10,000 events were collected for analysis. Cells treated with 0.1% DMSO were used as a negative control and cells treated with colchicine were used as a positive control.
In further anticancer evaluation of compounds of Formula I cell cycle analysis was performed using the cell permeable DNA binding dye Vybrant Orange. In a normal population, cells are distributed among the three major phases of the cell cycle, G0/G1 in which there is one set of paired chromosomes per cell (2n), followed by the S or synthesis phase in which DNA is synthesized in preparation for division (there is a variable amount of DNA present during this phase) and finally G2/M phase in which the chromosomes of each cell have now been duplicated (4n). This DNA content can be measured using fluorescent DNA selective probes such as Vybrant Orange that produce signals that are proportional to DNA mass per cell. This dye interacts with double stranded DNA (dsDNA) in living cells and becomes fluorescent upon binding and thus can be used to track DNA content as cells progress through the various phases of the cell cycle using flow cytometry. Cell cycle analysis was performed on HeLa cells using Rig8 at various concentrations above and below the respective GI50. Since colchicine is a known antimitotic drug, it was utilized as a positive control, while HeLa cells treated with 0.1% DMSO were used as a negative control. FIG. 6 illustrates the results of this analysis using Rig 8 on HeLa cells.

[1] = test system: MCF-7 mammary gland adenocarcinoma cells; test: MTT antiproliferative assay, MCF-7; format: cell-based; conditions: Homo sapiens, MCF7, 48 h, MTT, ± SD
Procedure: (§1) Human T-cell leukemia cell line Jurkat (ATCC TIB-152, E6-1 clone) was cultured in RPMI-1640 (Invitrogen) supplemented with 10% FBS (Invitrogen), 100 mg/L penicillin G, 100 mg/L streptomycin, 1.0 mM sodium pyruvate, 1.5 g/L sodium bicarbonate, and 4.5 g/L glucose (all from Sigma). Human cervical cancer cell line HeLa (ATCC S3) was cultured in DMEM (Invitrogen) supplemented with 10% FBS, 100 mg/L penicillin G, and 100 mg/L streptomycin. MCF-7 (human mammary carcinoma) cells were cultured in DMEM supplemented with 1.0 mM sodium pyruvate, 1% GlutaMax™-1 (Invitrogen), 100 μg/mL penicillin, 100 μg/mL streptomycin, and 10% FBS. Human uterine sarcoma MES-SA and MES-SA/Dx5 cells were cultured in RPMI-1640 medium supplemented with 10% FBS, 100 mg/L penicillin G and 100 mg/L streptomycin. All cells were incubated at 37° C. in a humidified atmosphere with 5% CO2. The other cell lines were maintained in a similar fashion as previously described.
(§2) To evaluate antiproliferative properties of the compounds of Formula I, mitochondrial dehydrogenase activities were measured using the MTT assay. The cell lines were prepared by trypsinizing and seeding […] cells per well into microplates. All compounds were reconstituted in dimethyl sulfoxide (DMSO) at a concentration of either 100 mM or 25 mM prior to treatment. The cells were grown for 24 hrs before treatment at concentrations ranging from 0.004 to 100 microM and incubated for 48 hrs in 200 microL media. 20 microL of MTT reagent in serum free medium (5 mg/mL) was added to each well and incubated further for 2 hrs. Media was removed and the resulting formazan crystals were re-solubilized in 100 microL of DMSO and the optical density (OD) was measured using a Thermomax Molecular Device plate reader at a wavelength of 490 nm. The experiments were performed in quadruplicate and repeated at least twice for each compound per cell line. Cells treated with 0.1% DMSO were used as a negative control, while phenyl arsine oxide (PAO) was used as a positive killing control.
(§3) Human cancer cell lines were obtained from the American Type Culture Collection (ATCC, Manassas, Va., USA), the European Collection of Cell Culture (ECACC, Salisbury, UK) and the Deutsche Sammlung von Mikroorganismen and Zellkulturen (DSMZ, Braunschweig, Germany). Human cervical adenocarcinoma HeLa cells were cultured in DMEM supplemented with 10% fetal bovine serum (FBS). Human mammary carcinoma MCF-7 cells were cultured in RPMI supplemented with 10% FBS. The U87 and U373 cells were cultured in DMEM culture medium (Lonza code 12-136F, Vervier, Belgium), while the SKMEL-28 and A549 cells were cultured in RPMI culture medium (Lonza; code 12-115F) supplemented with 10% heat-inactivated FBS (Lonza, FBS South America code DE14-801F). […] All cell lines were cultured in T25 flasks, maintained and grown at 37° C., 95% humidity, 5% CO2.
(§4) To evaluate antiproliferative properties of the synthesized compounds, the MTT assay was used. The cell lines were assessed by trypsinizing each cell line and seeding 4×10^3 cells per well into 96-well plates. All compounds were dissolved in DMSO at a concentration of either 100 mM or 50 mM prior to cell treatment. The cells were grown for 24 h and then treated with compounds at concentrations ranging from 0.04 to 100 μM and incubated for 48 h in 200 μL media. 20 μL of MTT reagent in serum free medium (5 mg/mL) was added to each well and incubated further for 2 h. Media was removed, and the resulting formazan crystals were re-solubilized in 200 μL of DMSO. A490 was measured using a Thermomax Molecular Device plate reader. The experiments were performed in quadruplicate and repeated at least twice for each compound per cell line. Cells treated with 0.1% DMSO were used as a control, and 1 μM phenyl arsine oxide (PAO) was used as a positive killing control.

[2] = test system: HeLa cervical adenocarcinoma cells; test: MTT antiproliferative assay, HeLa; format: cell-based; conditions: Homo sapiens, MTT, ± SD
Procedure: as §1, §2, §3, §4

HeLa and MCF-7 cells = test: MTT antiproliferative activity, statements for HeLa and MCF-7; format: cell-based, human; conditions: HeLa and MCF-7, 48 h
Procedure: as §2
The obtained compounds were evaluated for antiproliferative activities using the HeLa cell line as a model for human cervical adenocarcinoma and MCF-7 cells as a model for breast adenocarcinoma. The cells were treated with each compound for 48 h, and cell viability was assessed using the MTT method (Table 5).
as §4

U-87 glioblastoma cells = test: MTT antiproliferative assay, U-87; format: cell-based; conditions: Homo sapiens, Table 6, 48 h, ± SD, read-out: GI50 in vitro Values, U-87
Procedure: as §3, §4

[3] = test system: A549 non-small-cell lung cancer cells; test: MTT antiproliferative assay, A549; format: cell-based; conditions: Homo sapiens, Table 6, 48 h, ± SD, read-out: GI50 in vitro Values, A549
Procedure: as §2, §3, §4

[4] = test system: MES-SA/Dx5 uterine sarcoma cells (overexpress p-gp); test: MTT antiproliferative assay, MDR MES-SA/Dx5; format: cell-based, human; conditions: MES-SA/Dx5 vs MES-SA
Procedure: as §1, §2
The cells of such tumors are referred to as multidrug resistant (MDR). Thus, we assessed the compounds of Formula I for antiproliferative activity in an MDR cancer cell line. This was done using the uterine sarcoma cells, MES-SA/Dx5, which overexpress p-gp. The parental drug-responsive MES-SA cell line was used as control.

[5] = Table 5, read-out: cell viability GI50, MCF-7
[6] = Table 5, 48 h, read-out: cell viability GI50, HeLa
[7] = Table 6, read-out: GI50 in vitro Values, MCF-7
[8] = Table 6, 48 h, read-out: GI50 in vitro Values, HeLa

COc1cc2c(c(OC)c1OC)-c1ccc(OC)c(=O)cc1[C@@H](NC(C)=O)CC2 [Colchicine, reference compound]
% Relative DNA Content, G0/G1 (HeLa cells): 28.7 ± 1.2%
% Relative DNA Content, G2/M (HeLa cells): 53.6 ± 1.3%
% Relative DNA Content, S (HeLa cells): 15.7 ± 1.9%

O=C(c1ccccc1)c1[nH]c2[nH]c(-c3ccccn3)nc(=O)c2c1-c1ccccc1 [Compound 5]
GI50 [1, 5]: 2.5 ± 0.3 µM
GI50 [2, 6]: 2.7 ± 0.2 µM
antiproliferative activity (potency in words) (HeLa and MCF-7 cells): double to single digit micromolar

O=C(c1ccccc1)c1[nH]c2[nH]c(-c3ccco3)nc(=O)c2c1-c1ccccc1 [Compound 6]
GI50 [1, 5]: 23.1 ± 0.5 µM
GI50 [2, 6]: 18.4 ± 1.8 µM
antiproliferative activity (potency in words) (HeLa and MCF-7 cells): double to single digit micromolar

CCOc1nc(=O)c2c(-c3ccccc3)c(C(=O)c3ccccc3)[nH]c2[nH]1 [Compound 8]
GI50 [1, 5]: 10.4 ± 0.8 µM
GI50 [2, 6]: 11.1 ± 0.4 µM
antiproliferative activity (potency in words) (HeLa and MCF-7 cells): double to single digit micromolar

CC(C)c1nc(=O)c2c(-c3ccccc3)c(C(=O)c3ccccc3)[nH]c2[nH]1 [Compound 9]
GI50 [1, 5]: 8.3 ± 0.8 µM
GI50 [2, 6]: 9.1 ± 0.3 µM
antiproliferative activity (potency in words) (HeLa and MCF-7 cells): double to single digit micromolar

Cc1nc(=O)c2c(-c3ccccc3)c(C(=O)c3ccccc3)[nH]c2[nH]1 [Compound 13, 6-Benzoyl-2-methyl-5-phenyl-1H-pyrrolo[2,3-d]pyrimidin-4(7H)-one]
GI50 (U-87 glioblastoma cells): 0.077 ± 0.002 µM
GI50 [1, 5]: 0.035 ± 0.003 µM
GI50 [1, 7]: 0.035 ± 0.003 µM
GI50 [2, 6]: 0.029 ± 0.001 µM
GI50 [2, 8]: 0.029 ± 0.001 µM
GI50 [3]: 0.25 ± 0.01 µM
antiproliferative activity (potency in words) (HeLa and MCF-7 cells): nanomolar

C#CCCCc1nc(=O)c2c(-c3ccccc3)c(C(=O)c3ccccc3)[nH]c2[nH]1 [Compound 17, 6-Benzoyl-2-(pent-4-ynyl)-5-phenyl-1H-pyrrolo[2,3-d]pyrimidin-4(7H)-one]
GI50 [1, 5]: 0.045 ± 0.001 µM
antiproliferative activity (potency in words) (HeLa and MCF-7 cells): nanomolar

Cc1nc(=O)c2c(-c3cccc(Cl)c3)c(C(=O)c3ccccc3)[nH]c2[nH]1 [Compound 18, 6-Benzoyl-5-(3-chlorophenyl)-2-methyl-1H-pyrrolo[2,3-d]pyrimidin-4(7H)-one]
GI50 (U-87 glioblastoma cells): 0.9 ± 0.16 µM
GI50 [1, 7]: 0.23 µM
GI50 [2, 8]: 0.27 ± 0.01 µM
GI50 [3]: 0.6 ± 0.23 µM

Cc1nc(=O)c2c(-c3cccc(Br)c3)c(C(=O)c3ccccc3)[nH]c2[nH]1 [Compound 19, 6-Benzoyl-5-(3-bromophenyl)-2-methyl-1H-pyrrolo[2,3-d]pyrimidin-4(7H)-one]
GI50 (U-87 glioblastoma cells): 0.94 ± 0.12 µM
GI50 [1, 7]: 0.27 ± 0.03 µM
GI50 [2, 8]: 0.29 ± 0.01 µM
GI50 [3]: 0.65 ± 0.19 µM

Cc1nc(=O)c2c(-c3cccc(F)c3)c(C(=O)c3ccccc3)[nH]c2[nH]1 [Compound 20, 6-Benzoyl-5-(3-fluorophenyl)-2-methyl-1H-pyrrolo[2,3-d]pyrimidin-4(7H)-one]
GI50 (U-87 glioblastoma cells): 1.7 ± 0.1 µM
GI50 [1, 7]: 0.36 ± 0.02 µM
GI50 [2, 8]: 0.29 ± 0.03 µM
GI50 [3]: 1 ± 0.9 µM

Cc1nc(=O)c2c(-c3cc(Br)cc(Br)c3)c(C(=O)c3ccccc3)[nH]c2[nH]1 [Compound 23, 6-Benzoyl-5-(3,5-dibromophenyl)-2-methyl-1H-pyrrolo[2,3-d]pyrimidin-4(7H)-one]
GI50 (U-87 glioblastoma cells): 0.72 ± 0.06 µM
GI50 [1, 7]: 0.27 ± 0.01 µM
GI50 [2, 8]: 0.29 ± 0.01 µM
GI50 [3]: 0.38 ± 0.08 µM

CC(=O)O[C@H]1C(=O)[C@@]2(C)[C@H]([C@H](OC(=O)c3ccccc3)[C@]3(O)C[C@H](OC(=O)[C@H](O)[C@@H](NC(=O)c4ccccc4)c4ccccc4)C(C)=C1C3(C)C)[C@]1(OC(C)=O)CO[C@@H]1C[C@@H]2O [Taxol, reference compound]
times less potent against the MDR cells compared with the parental MES-SA cells [4]: ca. 1000 times

CC[C@]1(O)C[C@@H]2CN(CCc3c([nH]c4ccccc34)[C@@](C(=O)OC)(c3cc4c(cc3OC)N(C)[C@H]3[C@@](O)(C(=O)OC)[C@H](OC(C)=O)[C@]5(CC)C=CCN6CC[C@]43[C@@H]65)C2)C1 [Vinblastine, reference compound]
times less potent against the MDR cells compared with the parental MES-SA cells [4]: ca. 1000 times
